Results: ChEMBL document CHEMBL3885861, “Open TG-GATES”

Species: Rattus norvegicus
Experiment: Open TG-GATES - Regimen: Single
Type: toxicity, organism-based, Sprague-Dawley
Design: regimen Single, gender Male, age 6 weeks
Conditions: in vivo, po, 0 mg/kg, route gavage, dose level Control; for APTT / Bas / Eos / Fbg / Hb / Ht / Lym / MCH / MCHC / MCV / Mono / Neu / PT / Plat / RBC / Ret / WBC: tissue Blood; for KIDNEY_L / KIDNEY_R / KIDNEY_TOTAL: tissue Kidney; for LIVER: tissue Liver; for A/G / ALP / ALT / AST / BUN / CRE / Ca / Cl / DBIL / GLC / IP / K / LDH / Na / PL / RALB / TBIL / TC / TG / TP / gamma-GTP: tissue Plasma

With `S=C=Nc1cccc2ccccc12` [1-NAPHTHYLISOTHIOCYANATE] the TERMINAL_BW (3 h) was 224.9 g, the APTT (3 h) was 18.6 s and the Bas (3 h) was 0%. It also gave an Eos (3 h) of 1%, a Fbg (3 h) of 223 mg/dL and a Hb (3 h) of 13.7 g/dL. The Ht (3 h) was 37.8%, the Lym (3 h) was 78% and the MCH (3 h) was 22.1 pg. It also gave an MCHC (3 h) of 36.2%, an MCV (3 h) of 61 fL and a Mono (3 h) of 2.6%. The Neu (3 h) was 17.6%, the PT (3 h) was 11.9 s and the Plat (3 h) was 124.1 x10_4/uL. It also gave an RBC (3 h) of 619.8 x10_4/ul, a Ret (3 h) of 8.2% and a WBC (3 h) of 101.9 x10_2/uL. It also gave a KIDNEY_L (3 h) of 1 g, a KIDNEY_R (3 h) of 1 g and a KIDNEY_TOTAL (3 h) of 2 g. For the same compound, the LIVER (3 h) was 10.2 g, the A/G (3 h) was 1.6 and the ALP (3 h) was 937 IU/L. It also gave an ALT (3 h) of 37.6 IU/L, an AST (3 h) of 73 IU/L and a BUN (3 h) of 11.2 mg/dL. For the same compound, the CRE (3 h) was 0.4 mg/dL, the Ca (3 h) was 10.9 mg/dL and the Cl (3 h) was 103.4 meq/L. For the same compound, the DBIL (3 h) was 0.07 mg/dL, the GLC (3 h) was 200.8 mg/dL and the IP (3 h) was 9.4 mg/dL. For the same compound, the K (3 h) was 3.9 meq/L, the LDH (3 h) was 189.2 IU/L and the Na (3 h) was 141.6 meq/L. The PL (3 h) was 161.6 mg/dL, the RALB (3 h) was 3.4 g/dL and the TBIL (3 h) was 0.1 mg/dL. It also gave a TC (3 h) of 81 mg/dL, a TG (3 h) of 82.2 mg/dL and a TP (3 h) of 5.5 g/dL. It also gave a gamma-GTP (3 h) of 1 IU/L, a TERMINAL_BW (6 h) of 218.1 g and an APTT (6 h) of 18.7 s. It also gave a Bas (6 h) of 0.2%, an Eos (6 h) of 0.8% and a Fbg (6 h) of 232.2 mg/dL. For the same compound, the Hb (6 h) was 13.4 g/dL, the Ht (6 h) was 37.2% and the Lym (6 h) was 76%. For the same compound, the MCH (6 h) was 22 pg, the MCHC (6 h) was 36% and the MCV (6 h) was 61.2 fL. For the same compound, the Mono (6 h) was 3.4%, the Neu (6 h) was 18.4% and the PT (6 h) was 11.8 s. It also gave a Plat (6 h) of 128 x10_4/uL, an RBC (6 h) of 609.2 x10_4/ul and a Ret (6 h) of 7.2%. It also gave a WBC (6 h) of 106.9 x10_2/uL, a KIDNEY_L (6 h) of 1 g and a KIDNEY_R (6 h) of 1 g. It also gave a KIDNEY_TOTAL (6 h) of 2 g, an LIVER (6 h) of 9.6 g and an A/G (6 h) of 1.8. It also gave an ALP (6 h) of 1087 IU/L, an ALT (6 h) of 35.6 IU/L and an AST (6 h) of 71.8 IU/L. It also gave a BUN (6 h) of 10 mg/dL, a CRE (6 h) of 0.4 mg/dL and a Ca (6 h) of 10.6 mg/dL. It also gave a Cl (6 h) of 103.8 meq/L, a DBIL (6 h) of 0.07 mg/dL and a GLC (6 h) of 192 mg/dL. It also gave an IP (6 h) of 10 mg/dL, a K (6 h) of 3.8 meq/L and an LDH (6 h) of 167.6 IU/L. For the same compound, the Na (6 h) was 141.8 meq/L, the PL (6 h) was 142.8 mg/dL and the RALB (6 h) was 3.5 g/dL. It also gave a TBIL (6 h) of 0.1 mg/dL, a TC (6 h) of 76.2 mg/dL and a TG (6 h) of 63.8 mg/dL. The TP (6 h) was 5.4 g/dL, the gamma-GTP (6 h) was 1 IU/L and the TERMINAL_BW (9 h) was 216.9 g. It also gave an APTT (9 h) of 17.6 s, a Bas (9 h) of 0.2% and an Eos (9 h) of 0.8%. It also gave a Fbg (9 h) of 234.6 mg/dL, a Hb (9 h) of 13.3 g/dL and a Ht (9 h) of 36.8%. It also gave a Lym (9 h) of 75%, an MCH (9 h) of 21.7 pg and an MCHC (9 h) of 36.1%. For the same compound, the MCV (9 h) was 60.1 fL, the Mono (9 h) was 2.2% and the Neu (9 h) was 20.8%. For the same compound, the PT (9 h) was 12.2 s, the Plat (9 h) was 121.1 x10_4/uL and the RBC (9 h) was 612 x10_4/ul. It also gave a Ret (9 h) of 6.9%, a WBC (9 h) of 90.1 x10_2/uL and a KIDNEY_L (9 h) of 0.9 g. It also gave a KIDNEY_R (9 h) of 1 g, a KIDNEY_TOTAL (9 h) of 1.9 g and an LIVER (9 h) of 8.8 g. The A/G (9 h) was 1.8, the ALP (9 h) was 908.4 IU/L and the ALT (9 h) was 28.8 IU/L. It also gave an AST (9 h) of 57.4 IU/L, a BUN (9 h) of 10.8 mg/dL and a CRE (9 h) of 0.4 mg/dL. The Ca (9 h) was 10.7 mg/dL, the Cl (9 h) was 103.6 meq/L and the DBIL (9 h) was 0.07 mg/dL. The GLC (9 h) was 201.4 mg/dL, the IP (9 h) was 10.3 mg/dL and the K (9 h) was 4 meq/L. For the same compound, the LDH (9 h) was 145.6 IU/L, the Na (9 h) was 141.8 meq/L and the PL (9 h) was 139 mg/dL. It also gave an RALB (9 h) of 3.5 g/dL, a TBIL (9 h) of 0.1 mg/dL and a TC (9 h) of 74.4 mg/dL. It also gave a TG (9 h) of 50.8 mg/dL, a TP (9 h) of 5.5 g/dL and a gamma-GTP (9 h) of 1 IU/L. For the same compound, the TERMINAL_BW (24 h) was 234.7 g, the APTT (24 h) was 17.8 s and the Bas (24 h) was 0.4%. For the same compound, the Eos (24 h) was 0.8%, the Fbg (24 h) was 222.8 mg/dL and the Hb (24 h) was 13.4 g/dL. For the same compound, the Ht (24 h) was 37.5%, the Lym (24 h) was 81.6% and the MCH (24 h) was 22.2 pg. For the same compound, the MCHC (24 h) was 35.6%, the MCV (24 h) was 62.5 fL and the Mono (24 h) was 3%. The Neu (24 h) was 13.6%, the PT (24 h) was 11.7 s and the Plat (24 h) was 128.7 x10_4/uL. The RBC (24 h) was 601 x10_4/ul, the Ret (24 h) was 6.6% and the WBC (24 h) was 91.3 x10_2/uL. It also gave a KIDNEY_L (24 h) of 1 g, a KIDNEY_R (24 h) of 1 g and a KIDNEY_TOTAL (24 h) of 2 g. For the same compound, the LIVER (24 h) was 10.8 g, the A/G (24 h) was 1.6 and the ALP (24 h) was 1087.6 IU/L. It also gave an ALT (24 h) of 37.8 IU/L, an AST (24 h) of 75.8 IU/L and a BUN (24 h) of 15.2 mg/dL. The CRE (24 h) was 0.4 mg/dL, the Ca (24 h) was 10.8 mg/dL and the Cl (24 h) was 103.6 meq/L. For the same compound, the DBIL (24 h) was 0.062 mg/dL, the GLC (24 h) was 188.8 mg/dL and the IP (24 h) was 7.6 mg/dL. For the same compound, the K (24 h) was 3.9 meq/L, the LDH (24 h) was 214.6 IU/L and the Na (24 h) was 141.6 meq/L. It also gave a PL (24 h) of 140.4 mg/dL, an RALB (24 h) of 3.4 g/dL and a TBIL (24 h) of 0.1 mg/dL. The TC (24 h) was 70.8 mg/dL, the TG (24 h) was 100.2 mg/dL and the TP (24 h) was 5.6 g/dL. The gamma-GTP (24 h) was 1.2 IU/L.
